Experimental data: article PMC10562782 (iScience, 2023)

Columns and labels:
Type in all cases: binding
human UGGT1 = human UGGT1 (Homo sapiens, UniProt Q9NYU2); assay: STD NMR
[1] = biological target: T1, CtUGGTGT24 (UDP-glucose glycoprotein glucosyltransferase, catalytic domain) (Thermochaetoides thermophila, UniProt G0SB58); assay: […] Å co-crystal structure
T1 sequence (G0SB58 1187-1473): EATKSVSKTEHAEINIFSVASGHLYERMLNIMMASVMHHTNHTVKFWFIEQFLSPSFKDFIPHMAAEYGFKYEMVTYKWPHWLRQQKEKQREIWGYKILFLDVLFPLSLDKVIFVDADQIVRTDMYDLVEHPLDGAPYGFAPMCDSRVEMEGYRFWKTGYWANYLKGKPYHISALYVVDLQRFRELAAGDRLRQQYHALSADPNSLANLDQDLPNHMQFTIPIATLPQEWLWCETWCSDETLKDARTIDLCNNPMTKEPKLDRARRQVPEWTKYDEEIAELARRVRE

[2] = biological target: T1, CtUGGTGT24 (UDP-glucose glycoprotein glucosyltransferase, catalytic domain); assay: co-crystal structure

Sequence of human UGGT1 (Q9NYU2 43-1551): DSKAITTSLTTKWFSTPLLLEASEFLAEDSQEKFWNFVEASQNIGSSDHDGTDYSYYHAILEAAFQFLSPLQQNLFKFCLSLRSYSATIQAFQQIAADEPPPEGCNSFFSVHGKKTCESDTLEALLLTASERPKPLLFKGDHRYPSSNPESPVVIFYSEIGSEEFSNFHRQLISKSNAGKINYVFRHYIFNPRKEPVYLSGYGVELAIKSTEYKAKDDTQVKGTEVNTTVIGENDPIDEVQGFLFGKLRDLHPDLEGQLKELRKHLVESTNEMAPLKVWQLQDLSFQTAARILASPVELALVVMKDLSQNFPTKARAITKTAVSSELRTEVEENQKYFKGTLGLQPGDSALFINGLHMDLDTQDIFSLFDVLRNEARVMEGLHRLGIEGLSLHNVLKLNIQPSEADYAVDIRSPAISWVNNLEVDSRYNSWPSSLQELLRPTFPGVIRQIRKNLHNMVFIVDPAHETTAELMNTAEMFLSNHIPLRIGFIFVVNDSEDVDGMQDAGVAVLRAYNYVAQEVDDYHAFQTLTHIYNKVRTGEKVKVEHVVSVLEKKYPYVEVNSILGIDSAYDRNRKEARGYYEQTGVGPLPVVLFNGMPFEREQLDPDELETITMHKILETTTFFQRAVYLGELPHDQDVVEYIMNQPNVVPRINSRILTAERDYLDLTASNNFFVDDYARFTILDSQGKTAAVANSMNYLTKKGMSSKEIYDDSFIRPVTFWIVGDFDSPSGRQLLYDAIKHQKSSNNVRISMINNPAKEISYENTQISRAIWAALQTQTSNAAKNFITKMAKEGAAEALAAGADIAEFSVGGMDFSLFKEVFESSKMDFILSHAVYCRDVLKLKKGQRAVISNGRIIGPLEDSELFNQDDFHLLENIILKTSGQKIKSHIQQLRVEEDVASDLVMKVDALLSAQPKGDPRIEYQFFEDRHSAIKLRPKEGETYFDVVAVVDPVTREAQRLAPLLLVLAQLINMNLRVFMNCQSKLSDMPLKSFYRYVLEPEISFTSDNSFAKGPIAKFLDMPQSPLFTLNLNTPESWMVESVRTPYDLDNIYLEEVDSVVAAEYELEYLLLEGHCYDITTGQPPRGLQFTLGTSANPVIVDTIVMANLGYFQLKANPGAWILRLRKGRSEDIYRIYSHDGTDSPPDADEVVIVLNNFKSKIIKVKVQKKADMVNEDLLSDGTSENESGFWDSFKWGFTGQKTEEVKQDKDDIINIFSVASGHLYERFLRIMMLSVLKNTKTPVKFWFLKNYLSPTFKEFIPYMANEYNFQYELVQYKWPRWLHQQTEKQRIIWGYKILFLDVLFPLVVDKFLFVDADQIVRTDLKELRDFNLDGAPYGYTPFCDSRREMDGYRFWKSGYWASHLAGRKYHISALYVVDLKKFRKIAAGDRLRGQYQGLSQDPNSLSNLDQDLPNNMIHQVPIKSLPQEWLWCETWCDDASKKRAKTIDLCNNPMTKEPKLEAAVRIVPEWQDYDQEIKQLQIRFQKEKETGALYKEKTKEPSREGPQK

Q: Oc1ccc(CN2CCOCC2)c2cccnc12 [5M-8OH-Q, 5-[(morpholin-4-yl)methyl]quinolin-8-ol] was tested. Which Kd (human UGGT1) did it give?
A: 613 µM

Q: And the Kd [1]?
A: 47 ± 0.7 µM

Q: With O=c1ccn([C@@H]2O[C@H](COP(=O)(O)OP(=O)(O)O[C@H]3O[C@H](CO)[C@@H](O)[C@H](O)[C@H]3F)[C@@H](O)[C@H]2O)c(=O)[nH]1 [U2F] as the compound, how does the “co-crystal structure (X-ray)” value [2] read?
A: In the ^U2FCtUGGTGT24 structure (PDB ID 7ZLU) these two water molecules are replaced by an O atom
